According to US12233060B2, “Inhibitors of Ataxia-Telangiectasia Mutated and Rad3-related protein kinase (ATR) for use in methods of treating cancer” (THE INSTITUTE OF CANCER RESEARCH: ROYAL CANCER HOSPITAL, priority 2016, dated 2025):

System: HCC1143 cells
Experiment: 384 well plate cell survival after ARID1A siRNA transfection
Type: cell-based, human
Details: ARID1A siRNA vs control, five continuous days exposure
Excerpt: FIG. 1. […] A. Structure of VE-821 and schematic describing workflow for parallel VE-821 chemosensitisation screens in MCF12A and HCC1143 cells. B. Scatter plots of VE-821 Drug Effect (DE) Z-scores from all 1280 siRNAs used in the in the chemosensitisation screens. The DE Z-score threshold of −2 (red line) was used for defining candidate synthetic lethal interactions is shown. C. Venn diagram of DE<−2 VE-821 sensitisation hits in MCF12A and HCC1143 cells. Numbers shown indicate number of sensitisation genes. Amongst the 30 genes with DE Z-scores <−2 in both cell lines, seven well-established tumour suppressor genes were identified. D. Bar charts illustrating DE Z-scores for control, non-targeting, siRNAs (siALLSTAR, siCON1, siCON2) and ARID1A siRNAs in the chemosensitisation screens. Values shown are median from triplicate screens and error bars represent SD. […]
A siRNA library was purchased from Dharmacon. […] RNAi screening conditions were optimised and raw CellTitre-Glo (Promega) luminescent viability readings were generated as previously described21. […]
Short-term survival assays were performed in 384-well plates. […] Drug was added 24 h after seeding and cells were continuously exposed to the drug for five days, after which cell viability was estimated using CellTitre-Glo luminescence (Promega). […] Colonies were counted manually. […]

## CNCc1ccc(-c2cc(-c3nc(-c4ccc(S(=O)(=O)C(C)C)cc4)cnc3N)on2)cc1 [VX-970, 5-[4-(Isopropylsulfonyl)phenyl]-3-(3-{4-[(methylamino)methyl]phenyl}-1,2-oxazol-5-yl)-2-pyrazinamine]
  ATRi sensitivity caused by ARID1A siRNA: caused sensitivity
